Test results published in article PMC12838644, “Dihydrotanshinone as a Natural Product-Based CYP17A1 Lyase Inhibitor for Hyperandrogenic Disorders” (Biomolecules, 2026).
Where two headings read alike, the source gives them in different places.

Legend:
CYP21A2 = experiment: Western blot of CYP21A2 protein expression in treated HEK-293T cells; type: cell-based, human; details: normalized to β-actin, 4 h treatment, DMSO control 1.07
Experimental: CYP21A2 expression was determined from total protein extracts. Cells were incubated with the previously described lysis buffer for 1 h and centrifuged at 10,000× g for 10 min at 4 °C [54]. The supernatant was collected, and total protein was determined using the Pierce Coomassie Plus (Bradford) assay kit (Thermo Fisher Scientific, Hanover Park, IL, USA). 50 μg of total protein was loaded onto an SDS-PAGE gel (GenScript, Piscataway, NJ, USA) and then transferred to a PVDF membrane as previously described. Two primary antibodies were used: a mouse DKY-Tag monoclonal antibody (GenScript, Catalog No. A00187) at a dilution of 1:1000 and a mouse anti-β-actin monoclonal antibody (Sigma Aldrich, St. Louis, MO, USA, Catalog No. SAB3500350) at a dilution of 1:1500. The secondary antibody, IRDye 800CW-conjugated donkey anti-mouse antibody (LI-COR, Lincoln, NE, USA, Catalog No. 926-32212), was used at a dilution of 1:15,000. Fluorescence signals were detected using an Odyssey SA infrared imaging system (LI-COR Bioscience Inc., Lincoln, NE, USA).

CYP17A1 17α-hydroxylase = target: T1, CYP17A1 17α-hydroxylase (Homo sapiens, UniProt P05093); experiment: CYP17A1 17α-hydroxylase activity assay (progesterone to 17OH-progesterone, reconstituted POR/CYP17A1); type: biochemical; details: for inhibition at 10 µM: read-out: % Inhibition CYP17A1-OH
T1 sequence (P05093 1-508): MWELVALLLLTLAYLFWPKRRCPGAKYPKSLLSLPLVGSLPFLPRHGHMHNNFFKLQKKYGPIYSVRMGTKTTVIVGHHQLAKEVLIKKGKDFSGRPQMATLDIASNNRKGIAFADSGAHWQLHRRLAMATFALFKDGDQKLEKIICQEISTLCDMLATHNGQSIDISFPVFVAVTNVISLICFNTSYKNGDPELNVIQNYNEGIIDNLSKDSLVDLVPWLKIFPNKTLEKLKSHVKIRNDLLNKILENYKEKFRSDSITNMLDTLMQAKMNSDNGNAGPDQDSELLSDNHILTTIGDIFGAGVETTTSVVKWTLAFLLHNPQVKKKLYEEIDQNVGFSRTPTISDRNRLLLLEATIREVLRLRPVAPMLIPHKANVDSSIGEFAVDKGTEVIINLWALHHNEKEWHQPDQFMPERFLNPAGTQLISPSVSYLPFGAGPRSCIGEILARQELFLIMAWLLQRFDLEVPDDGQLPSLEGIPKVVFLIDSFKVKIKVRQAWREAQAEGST
Experimental: (§1) Assay of CYP17A1 17α-hydroxylase and 17,20-lyase activities were performed as described previously. The 17α-hydroxylase activity was measured by conversion of progesterone to 17OH-progesterone, while production of DHEA from 17OH-pregnenolone was used for monitoring the 17,20-lyase activity of CYP17A1. In vitro CYP17A1 assays were performed using a liposome system consisting of human p450 oxidoreductase (POR) and CYP17A1 at a ratio of 3:4 (POR: CYP17A1). The final assay mixture consisted of proteins (37.5 nmol POR: 50 nmol CYP17A1), 10 mM MgCl2, 6 mM potassium acetate (KOAc), 0.05 mg/mL DLPC,1 mM reduced Glutathione in 50 mM HEPES-NaOH buffer (pH 7.4), and the reaction volume was 200 μL. The drugs were added to the final mixture and incubated for 1h before the catalytic reaction was initiated by the addition of NADPH to 1 mM final concentration. Radiolabeled [^14C]-progesterone (10,000 cpm in 1 µM) was used as a tracer in each reaction. Steroids were extracted and separated by thin-layer chromatography (TLC) on silica gel (SIL G/UV254) TLC plates (Macherey-Nagel, Oensingen, Switzerland) as previously described.

RWPE-1 cells = experiment: alamarBlue cytotoxicity assay, RWPE-1; type: cell-based; details: Homo sapiens, read-out: RWPE-1 (IC50)
Experimental: RWPE-1 cells (ATCC: CRL-36O7) were cultured in keratinocyte serum-free media (K-SFM) supplemented with 0.05 mg/mL bovine pituitary extract and 5 ng/mL epidermal growth factor, and 1% penicillin (100 U/mL; Thermo Fisher Scientific, Waltham, MA, USA), and streptomycin (100 μg/mL; GIBCO). […] Passage numbers remained below 30 as per standard procedures. All cell lines were validated and characterized before use to ensure their authenticity and reliability. Routine mycoplasma testing was conducted to confirm that the cells were free from contamination. Additionally, key functional and morphological characteristics were assessed to verify their alignment with previously reported profiles.
The alamarBlue® assay (Thermo Fisher Scientific, Waltham, MA USA) was conducted as previously described. RWPE-1 cells, HEK-293 cells, and NCI-H295R cells were plated in 96-well plates at 10,000 cells per well and incubated overnight at 37 °C with 5% CO2. […] Cells were incubated for an additional 24 h. Cell viability was measured using the alamarBlue® assay. Post-incubation, 0.05 mg/mL alamarBlue® solution in phosphate-buffered saline (PBS) was added to each well. The plates were incubated in the dark at 37 °C with 5% CO2 for 4 h, and fluorescence was measured at an excitation wavelength of 540 nm and an emission wavelength of 590 nm. Cell viability was calculated relative to the control sample treated with DMSO. All experiments were conducted in triplicate.

CYP17A1 17,20-lyase = target: T2, CYP17A1 17,20-lyase (Homo sapiens, UniProt P05093); experiment: CYP17A1 17,20-lyase activity assay (DHEA from 17OH-pregnenolone, POR, CYP17A1 and cytochrome b5); type: biochemical; details: for Residual 17,20-lyase activity: % of DMSO control; for Lyase/CYP21A2 Selectivity Index: (% Inhibition Lyase)/(% Inhibition CYP21A2) at 10 µM (SM 10 µg/mL); for inhibition at 10 µM: read-out: % Inhibition CYP17A1-Lyase; for Lyase/OH Selectivity Index: (% Inhibition Lyase)/(% Inhibition OH) at 10 µM (SM 10 µg/mL)
T2 sequence (P05093 1-508): T1 sequence (P05093 1-508)
Experimental: as §1, with “The final assay mixture consisted of proteins (37.5 nmol POR: 50 nmol CYP17A1), 10 mM MgCl2, 6 mM potassium acetate (KOAc), 0.05 mg/mL DLPC,1 mM reduced Glutathione in 50 mM HEPES-NaOH buffer (pH 7.4), and the reaction volume was 200 μL.” left out
In vitro CYP17A1 17,20-lyase activity assays were performed using POR, CYP17A1 and cytochrome b5 as described previously. The final assay mixture consisted of proteins, 10 mM MgCl2, 6 mM KOAc, 0.05 mg/mL DLPC, 1 mM reduced glutathione in 50 mM HEPES-NaOH buffer (pH 7.4), and the reaction volume was 200 μL. The drugs were added to the final mixture and incubated for 1h before the catalytic reaction was initiated by the addition of NADPH to 1 mM final concentration. Radiolabeled [^3H]-17OH-pregnenolone (50,000 cpm in 1 µM) was added as a tracer and the enzyme activity was measured by using the scintillation counter in the water release assay.

[1] = 10 µM (SM extract 10 µg/mL), calculated as 100% − % residual activity
[2] = RWPE-1, cytotoxicity, alamarBlue, 24 h incubation, mean ± SD, three experiments

Structure (SMILES)	CYP21A2 protein levels, normalized densitometry values (CYP21A2)	Residual 17α-hydroxylase activity (CYP17A1 17α-hydroxylase; % of DMSO control, 10 µM (SM extract 10 µg/mL))	inhibition at 10 µM (CYP17A1 17α-hydroxylase)	IC50 (RWPE-1 cells; RWPE-1, 24 h)	Residual 17,20-lyase activity (CYP17A1 17,20-lyase; 10 µM (SM extract 10 µg/mL))	Lyase/CYP21A2 Selectivity Index (CYP17A1 17,20-lyase)	inhibition at 10 µM (CYP17A1 17,20-lyase)	inhibition at 10 µM (CYP17A1 17α-hydroxylase; [1])	IC50 (RWPE-1 cells; [2])	inhibition at 10 µM (CYP17A1 17,20-lyase; [1])	Lyase/OH Selectivity Index (CYP17A1 17,20-lyase)
Cc1cccc2c3c(ccc12)C1=C(C(=O)C3=O)[C@@H](C)CO1 [DT, dihydrotanshinone I]	1.15	> 93%	6.5%	1400 ± 420 nM	43%	3.80	56.6%	–	–	–	–
Cc1coc2c1C(=O)C(=O)c1c-2ccc2c(C)cccc12 [TAI, tanshinone I]	–	–	–	–	72%	High ^c	–	< 1%	2270 ± 3250 nM	28.2%	High ^c
Cc1coc2c1C(=O)C(=O)c1c-2ccc2c1CCCC2(C)C [TAII, tanshinone IIA]	1.30	–	–	–	57%	High ^c	–	< 1%	4500 ± 11800 nM	43%	High ^c
